Experimental data: US20060293275A1, “Hgf production accelerator containing heparin-like oligosaccharide” (priority 2004, published 2006)

Tests used:
[1] = tested on: fresh plasma taken from Wister rat; assay: Anti-blood coagulation activity by activated partial thromboplastin time (APTT); format: biochemical; settings: 9 μg/mL or 3 μg/mL
From the text: Anti-blood coagulation activity of the sugar chain compound such as oligosaccharide or a salt thereof used in the agent of the present invention for promoting HGF production can be assessed by measuring an activated partial thromboplastin time (APTT) or anti-factor Xa activity according to the known methods that have been used for measuring anti-blood coagulation activity of low-molecular-weight heparin.
Regarding the heparin fragments (oligosaccharides) obtained in Example 1, anti-blood coagulation activity and LPL releasing activity were measured. Anti-blood coagulation activity was assessed by comparing an activated partial thromboplastin time (APTT). APTT was measured using fresh plasma taken from Wister rat (male) and Data φ·APTT kit (Sysmex) which utilizes activation by ellagic acid. The heparin fragments were added to rat plasma at a concentration of 9 μg/mL or 3 μg/mL, and APTT values (second) were compared.

lipoprotein lipase (LPL) = assay: LPL releasing activity (LPL amount in plasma by ELISA after tail vein administration); format: in vivo, Wister rat; settings: rat, after 10 minutes
From the text: LPL releasing activity of the sugar chain compound such as oligosaccharide used in the agent of the present invention for promoting HGF production or a salt thereof can be assessed by administering the sugar chain compound or a salt thereof to a mouse or a rat, taking the plasma after a certain time, and measuring the amount of LPL in the plasma. The amount of LPL in the plasma can be determined by measuring LPL activity, or measuring the mass of LPL protein by ELISA.
For measuring LPL releasing activity, heparin fragments were administered to Wister rat (3-week old male) via the tail vein at 0.3 μg per 1 g of body weight and, after 10 minutes, blood was taken from axillary fossa venous plexus, and a LPL amount in the resulting plasma was measured by ELISA (Daiichi Pure Chemicals Co., Ltd). In high-molecular weight heparin, about 250 ng/mL LPL was released, but in low-molecular weight heparin (Fragmin, Kissei Pharmaceutical Co., Ltd.), released LPL amount was reduced to about 30% of the amount in the case of high-molecular weight heparin. […] In particular, in oligosaccharides not larger than octasaccharide, reduction in released LPL amount was remarkable.

[2] = tested on: MRC-9 cells, human fetal lung fibroblasts; assay: Activity to promote HGF production in MRC-9 cells (HGF in culture medium by ELISA); format: cell-based; settings: 0 to 50 μg/ml
Protocol: An activity to promote HGF production of the agent of the present invention can be measured by comparing the HGF concentration in the culture medium of HGF-producing cells when the sugar chain compounds such as oligosaccharides or a salt thereof are added with that when they are not added, wherein the concentration of HGF can be measured by ELISA. As an HGF-producing cell, MRC-5 and MRC-9 cells, human fetal lung fibroblasts, can be used.
Activities to promote HGF production of the heparin fragments (oligosaccharides) obtained in Example 1 were measured by using MRC-9 cells, human fetal lung fibroblasts. The cells were cultured with heparin fragments(oligosaccharides) and amounts of HGF produced by the cell were analyzed. First, MRC-9 cells were seeded onto a 48 well plate at a density of 5×10^4 cells/cm^2, and cultured in a DMEM medium containing 10% FCS for one day. After removing the medium, the cells were washed twice with 0.5 mL of PBS, and the medium was exchanged with a DMEM medium containing 1% FCS. Thereafter, the culture was continued. At this time, the heparin fragments obtained in Example 1 were added to the medium at a final concentration of 1 μg/ml. After 24 hours, the culture supernatant was recovered, and an amount of HGF secreted into the culture medium was measured by the ELISA method. […]

| LPL releasing activity (in words) (lipoprotein lipase (LPL)) | Compound | anti-blood coagulation activity / extension of APTT (in words) [1] | activity to promote HGF production of disaccharide compounds (in words) [2] |
| --- | --- | --- | --- |
| not detected | NC1C(O)OC(CO)C(OC2OC(C(=O)O)=CC(O)C2OS(=O)(=O)O)C1O (stereo not drawn) [2-Sac-2S, ΔUA-2S-GlcN] | not detected | – |
| not detected | CC(=O)N[C@H]1C(O)O[C@H](COS(=O)(=O)O)[C@@H](O[C@@H]2OC(C(=O)O)=C[C@H](O)[C@H]2O)[C@@H]1O (some centres unmarked) [2-Sac-6S, ΔUA-GlcNAc-6S] | not detected | higher activity to promote HGF production than 2-Sac-2S |
| not detected | O=C(O)C1=C[C@H](O)[C@@H](O)[C@H](O[C@H]2[C@H](O)[C@@H](NS(=O)(=O)O)C(O)O[C@@H]2CO)O1 (some centres unmarked) [2-Sac-NS, ΔUA-GlcNS] | not detected | higher activity to promote HGF production than 2-Sac-2S |
